Patent publication US8497382B2, “Carboxylic acid derivative containing thiazole ring and pharmaceutical use thereof” (Mitsubishi Tanabe Pharma Corporation, priority 2008, dated 2013)

Tests used:
[1] = biological target: T1, Human Peroxisome Proliferator-Activated Receptor (PPAR)α (Homo sapiens, UniProt Q07869); assay: Transactivation test for human PPARα (GAL4-hPPARαLBD luciferase reporter in CV-1 cells); assay type: cell-based; settings: for EC50: CV-1 cells, GAL4-hPPARαLBD, luciferase activity after 24 hr, read-out: transactivation action (EC50, nmol/l)
T1 construct: expressed in transfected cells
T1 sequence (Q07869 239-466 limits assumed): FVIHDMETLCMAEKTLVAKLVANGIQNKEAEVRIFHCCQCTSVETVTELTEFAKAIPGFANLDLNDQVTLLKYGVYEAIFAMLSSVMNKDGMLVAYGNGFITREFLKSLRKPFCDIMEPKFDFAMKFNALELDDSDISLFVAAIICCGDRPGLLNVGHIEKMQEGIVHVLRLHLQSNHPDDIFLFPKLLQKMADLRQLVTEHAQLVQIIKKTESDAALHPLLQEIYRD
Description: Transactivation Test for Human Peroxisome Proliferator-Activated Receptor (PPAR)α
CV-1 cells (CCL-70, manufactured by Dainippon Pharma Co., Ltd.) cultured in Dulbecco's Modified Eagle Medium (DMEM) containing 10% fetal bovine serum (FBS) were transfected, using Lipofectamine 2000 (manufactured by Invitrogen), with pBIND vector (manufactured by Promega) that expresses a fusion protein of a DNA binding region of a yeast transcription factor (GAL4) and a human PPARα ligand binding region (GAL4-hPPARαLBD, manufactured based on Diabetes 47: 1841-1847, 1998), and an internal standard renilla luciferase, and GAL4 responsive TK vector that expresses reporter firefly luciferase (manufactured by Promega). 24 hr later, the medium was changed to a serum free medium containing a test compound, and the luciferase activity after 24 hr was measured.

normal rats = assay: Blood triglyceride (TG)-lowering action in normal rats; assay type: in vivo; settings: normal male SD rats; for TG lowering rate: p.o., once a day for 4 days, non-fasting; for TG-lowering action: 0.01 mg/kg
Protocol: 1) Blood Triglyceride (TG)-Lowering Action in Normal Rats
7 to 9-week-old male SD rats (manufactured by SEAC Yoshitomi, Ltd.) were used for the test. A test compound and a control compound (GW-9578: J. Med. Chem. 1999, 42, 3785-3788) were dissolved or suspended in 1% ethanol, 0.05% Tween80 (final concentration), and 0.5% hydroxypropylmethyl cellulose (HPMC) was added to adjust to a given concentration. The prepared solution was orally administered once a day for 4 days. After administration for 4 days, blood samples were collected from the jugular vein under non-fasting condition and blood TG was measured by an enzyme method. The lowering rate was calculated by determining the rate of a value obtained by subtracting the average blood TG of a drug administration group from the average blood TG of a vehicle administration group, to the average blood TG of the vehicle administration group.

[2] = tested on: high cholesterol diet-treated rat; assay: Influence on serum lipid of high cholesterol diet-treated rat; assay type: in vivo, SD rats; settings: once a day for 5 days, high cholesterol diet rats
Protocol: 2) Influence on Serum Lipid of High Cholesterol Diet-Treated Rat
8-week-old male SD rats (manufactured by SEAC Yoshitomi, Ltd.) were raised on a standard diet CE-2 (manufactured by Japan Clea, Inc.) added with 1% cholesterol, 2% olive oil and 0.2% cholic acid, from one week before test compound administration to the last day of the administration. A test compound and a control compound (GW-9578) were dissolved or suspended in 1% ethanol and 0.05% Tween80 (final concentration), and 0.5% hydroxypropylmethyl cellulose (HPMC) was added to adjust to a given concentration. The prepared solution was orally administered once a day for 5 days. After administration for 5 days, blood samples were collected from the jugular vein under non-fasting condition and blood lipid was measured by an enzyme method. The lowering rate was calculated by determining the rate of a value obtained by subtracting the average blood TG (or average blood TC) of a drug administration group from the average blood triglyceride (TG) (or average blood total cholesterol (TC)) of a vehicle administration group, to the average blood TG (or average blood TC) of the vehicle administration group.

[3] = Metabolizing isoform identification test (oxidative metabolism by microsome), human liver microsome; assay type: in vitro ADME; settings: for oxidative metabolism by human liver microsome: 14C-labeled test compound 2 μmol/L, 0.5 mg protein/mL, 37° C., 20 min
Protocol: (§1) Metabolizing Isoform Identification Test (Oxidative Metabolism by Microsome)
(§2) As a reaction mixture for the CYP isoform identification, a reaction mixture containing microsome [^14C-labeled test compound (2 μmol/L), microsome (human liver microsome at 0.5 mg protein/mL or microsome expressing CYP at 50 pmol CYP/mL (Control microsome, CYP1A2, CYP2A6, CYP2B6, CYP2C8, CYP2C9, CYP2C19, CYP2D6, CYP2E1 or CYP3A4)), EDTA (0.05 mmol/L) and Na—K phosphate buffer (pH 7.4, 0.1 mol/L)] was prepared and, after preincubation at 37° C. for 5 min, a solution of the NADPH generating system [β-NADP+ (0.5 mmol/L), glucose-6-phosphate (G-6-P) (5.0 mmol/L), magnesium chloride (5.0 mmol/L) and G-6-P DH (1.0 unit/mL)] was added to start the reaction. For CYP expressing microsomes for CYP2A6 and CYP2C9, Tris-HCl buffer (pH 7.4, 0.1 mol/L) was used instead of Na—K phosphate buffer (pH 7.4, 0.1 mol/L).
(§3) These reaction mixtures were incubated at 37° C. for 20 min, and a 3-fold amount of ethanol was added to the reaction mixtures to terminate the reaction. To the reaction mixture was added a predetermined amount of an unlabeled metabolite mixed solution, and the mixture was stirred (about 5 min), centrifuged (4° C., 3000 rpm, 10 min) and the supernatant was collected. To the residue was added a 3-fold amount of ethanol relative to the reaction mixture, and the mixture was stirred (about 5 min), and centrifuged (4° C., 3000 rpm, 10 min). The supernatant was collected and combined with the supernatant collected earlier, and the solvent was evaporated under a nitrogen stream at about 40° C. To the residue was added a predetermined amount of HPLC mobile phase or suitable solvent, and the mixture was stirred and used as an HPLC sample. The sample was injected into HPLC and a radiochromatogram was obtained. From the obtained radiochromatogram, the metabolism activity and metabolite generating activity of the ^14C-labeled test compound was calculated.

CYP2C19 = CYP2C19 (Homo sapiens, UniProt P33261); assay: Metabolizing isoform identification test, microsome expressing CYP2C19; assay type: in vitro ADME; settings: microsome expressing CYP at 50 pmol CYP/mL, 2 μmol/L, 37° C., 20 min
Chain of CYP2C19 (P33261 whole entry, canonical isoform): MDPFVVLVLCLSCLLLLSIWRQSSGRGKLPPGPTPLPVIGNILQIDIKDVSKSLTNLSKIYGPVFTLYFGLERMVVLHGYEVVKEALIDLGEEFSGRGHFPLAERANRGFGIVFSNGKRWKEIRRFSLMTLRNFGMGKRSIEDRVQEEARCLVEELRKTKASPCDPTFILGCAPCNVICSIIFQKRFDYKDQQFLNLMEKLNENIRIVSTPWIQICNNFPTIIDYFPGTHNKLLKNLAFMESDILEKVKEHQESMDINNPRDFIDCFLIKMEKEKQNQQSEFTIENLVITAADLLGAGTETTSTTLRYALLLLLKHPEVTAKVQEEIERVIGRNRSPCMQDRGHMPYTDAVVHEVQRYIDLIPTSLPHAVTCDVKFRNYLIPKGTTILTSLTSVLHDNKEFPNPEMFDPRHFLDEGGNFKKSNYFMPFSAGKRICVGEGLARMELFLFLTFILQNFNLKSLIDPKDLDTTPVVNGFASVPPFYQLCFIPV
Protocol: as §1, §2
(§4) These reaction mixtures were incubated at 37° C. for 20 min, and a 3-fold amount of ethanol was added to the reaction mixtures to terminate the reaction. To the reaction mixture was added a predetermined amount of an unlabeled metabolite mixed solution, and the mixture was stirred (about 5 min), centrifuged (4° C., 3000 rpm, 10 min) and the supernatant was collected. […] From the obtained radiochromatogram, the metabolism activity and metabolite generating activity of the ^14C-labeled test compound was calculated.

CYP3A4 = CYP3A4 (Homo sapiens, UniProt P08684); assay: Metabolizing isoform identification test, microsome expressing CYP3A4; assay type: in vitro ADME; settings: microsome expressing CYP at 50 pmol CYP/mL, 2 μmol/L, 37° C., 20 min
Chain of CYP3A4 (P08684 whole entry, canonical isoform): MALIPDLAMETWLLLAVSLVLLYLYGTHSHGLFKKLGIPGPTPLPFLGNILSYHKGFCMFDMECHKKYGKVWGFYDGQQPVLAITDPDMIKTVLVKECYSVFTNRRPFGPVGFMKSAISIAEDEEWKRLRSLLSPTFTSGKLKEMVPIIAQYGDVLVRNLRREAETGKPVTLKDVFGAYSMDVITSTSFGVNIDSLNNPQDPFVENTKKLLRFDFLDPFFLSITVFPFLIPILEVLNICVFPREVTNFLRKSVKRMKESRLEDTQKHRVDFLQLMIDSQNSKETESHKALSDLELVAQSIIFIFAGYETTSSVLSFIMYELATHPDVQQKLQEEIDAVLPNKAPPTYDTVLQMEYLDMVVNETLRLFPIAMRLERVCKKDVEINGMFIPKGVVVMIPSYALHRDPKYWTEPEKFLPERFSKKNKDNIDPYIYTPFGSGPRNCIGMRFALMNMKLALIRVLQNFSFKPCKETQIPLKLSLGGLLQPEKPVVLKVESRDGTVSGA
Protocol: as §1, §2, §4

CYP2C9 [4] = biological target: T2, CYP2C9 (Homo sapiens, UniProt P11712); assay: Metabolizing isoform identification test, microsome expressing CYP2C9; assay type: in vitro ADME; settings: microsome expressing CYP at 50 pmol CYP/mL, 2 μmol/L, 37° C., 20 min
T2 sequence (P11712 whole entry, canonical isoform): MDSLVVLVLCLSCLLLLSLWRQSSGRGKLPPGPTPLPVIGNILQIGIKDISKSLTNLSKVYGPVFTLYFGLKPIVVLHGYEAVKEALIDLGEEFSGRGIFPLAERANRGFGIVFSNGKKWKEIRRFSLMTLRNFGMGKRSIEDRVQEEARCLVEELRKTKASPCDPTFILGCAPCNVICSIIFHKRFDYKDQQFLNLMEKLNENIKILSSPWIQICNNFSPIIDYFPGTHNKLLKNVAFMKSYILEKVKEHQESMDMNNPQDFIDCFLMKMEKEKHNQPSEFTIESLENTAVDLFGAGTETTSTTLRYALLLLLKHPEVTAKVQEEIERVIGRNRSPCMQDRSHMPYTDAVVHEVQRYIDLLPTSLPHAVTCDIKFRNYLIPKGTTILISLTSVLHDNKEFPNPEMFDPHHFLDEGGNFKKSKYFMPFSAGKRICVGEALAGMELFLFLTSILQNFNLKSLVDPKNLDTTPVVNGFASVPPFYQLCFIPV
Protocol: as §1, §2, §4

CYP2C8 = biological target: T3, CYP2C8 (Homo sapiens, UniProt P10632); assay: Metabolizing isoform identification test, microsome expressing CYP2C8; assay type: in vitro ADME; settings: microsome expressing CYP at 50 pmol CYP/mL, 2 μmol/L, 37° C., 20 min
T3 sequence (P10632 1-490): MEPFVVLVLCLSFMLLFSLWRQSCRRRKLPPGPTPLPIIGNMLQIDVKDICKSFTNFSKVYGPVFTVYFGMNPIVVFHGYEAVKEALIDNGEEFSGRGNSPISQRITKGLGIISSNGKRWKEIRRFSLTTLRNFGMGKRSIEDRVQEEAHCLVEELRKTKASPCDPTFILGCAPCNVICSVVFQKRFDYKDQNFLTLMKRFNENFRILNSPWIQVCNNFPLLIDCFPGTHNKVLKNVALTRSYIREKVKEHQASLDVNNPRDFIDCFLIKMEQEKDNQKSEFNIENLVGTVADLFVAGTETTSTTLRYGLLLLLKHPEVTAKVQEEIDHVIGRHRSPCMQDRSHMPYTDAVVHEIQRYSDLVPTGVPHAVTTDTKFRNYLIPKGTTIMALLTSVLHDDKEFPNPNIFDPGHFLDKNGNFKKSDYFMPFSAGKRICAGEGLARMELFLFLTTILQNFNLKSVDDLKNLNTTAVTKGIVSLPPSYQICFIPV
Protocol: as §1, §2, §4

CYP2C9 [5] = biological target: T2, CYP2C9; assay: Investigation using an inhibitor (Sulfaphenazole) in human liver microsome; assay type: in vitro ADME; parameters: human liver microsome (0.5 mg protein/mL); from tissue; host or cells: human liver microsome; settings: Sulfaphenazole 10 μmol/L, test compound 0.2 and 2 μmol/L
Protocol: On the other hand, as a reaction mixture for studying inhibitors, [^14C-labeled test compound (0.2 μmol/L and 2 μmol/L), inhibitor solution (Sulfaphenazole) (10 μmol/L), human liver microsome (0.5 mg protein/mL), EDTA (0.05 mmol/L) and Na—K phosphate buffer (pH 7.4, 0.1 mol/L)] was prepared and, after preincubation at 37° C. for 5 min, a solution of the NADPH generating system was added thereto to start the reaction.
as §3, with “To the residue was added a predetermined amount of HPLC mobile phase or suitable solvent, and the mixture was stirred and used as an HPLC sample. The sample was injected into HPLC and a radiochromatogram was obtained.” left out

| SMILES | EC50 [1] [nmol/L] | oxidative metabolism by human liver microsome [3] | TG lowering rate (normal rats; 0.3 mg/kg) | TG lowering rate (%, 0.3 mg/kg, p.o.) TG ([2]; first column) | TG lowering rate (%, 0.3 mg/kg, p.o.) TG ([2]; second column) | TG-lowering action (normal rats) [%] | other results |
| --- | --- | --- | --- | --- | --- | --- | --- |
| CC(C)(Sc1nc(C(O)COc2ccc(-c3ccc(F)cc3)cc2)cs1)C(=O)O (stereo not shown) [Example 2, 2-[(4-{2-[(4′-fluorobiphenyl-4-yl)oxy]-1-hydroxyethyl}-1,3-thiazol-2-yl)thio]-2-methylpropionic acid] | 8.4 | – | 56% | 38% | 34% | – | – |
| CCCCCCCN(CCc1ccc(SC(C)(C)C(=O)O)cc1)C(=O)Nc1ccc(F)cc1F [GW-9578] | – | – | 50-60% | 30-50% | 30-50% | – | – |

The next lines start with results.

| EC50 [1] [nmol/L] | oxidative metabolism by human liver microsome [3] | SMILES | TG lowering rate (normal rats; 0.3 mg/kg) | TG lowering rate (%, 0.3 mg/kg, p.o.) TG ([2]; first column) | TG lowering rate (%, 0.3 mg/kg, p.o.) TG ([2]; second column) | TG-lowering action (normal rats) [%] | other results |
| --- | --- | --- | --- | --- | --- | --- | --- |
| 4.7 | – | CC(C)(Sc1nc(C(=O)COc2ccc(-c3ccc(F)cc3)cc2)cs1)C(=O)O [Example 3, 2-[(4-{[(4′-fluorobiphenyl-4-yl)oxy]acetyl}-1,3-thiazol-2-yl)thio]-2-methylpropionic acid] | – | – | – | – | – |
| 3.1 | could not be confirmed | CC(C)(Sc1nc([C@H](O)COc2ccc(-c3ccc(F)cc3)cc2)cs1)C(=O)O [Example 12, 2-[(4-{(1S)-2-[(4′-fluorobiphenyl-4-yl)oxy]-1-hydroxyethyl}-1,3-thiazol-2-yl)thio]-2-methylpropionic acid] | – | – | – | 15.1 | transcription activation activity relative to compound A (times stronger) ([1]; compared with compound A (10.41 nmol/l)): ≥ 3 times; involvement in the metabolism by CYP ([3]; summary statement in description): not involved in the metabolism by CYP; TG lowering rate (normal rats; 0.1 mg/kg): 52% |
| 10.4 | observed | CC(C)(Sc1nc(CCOc2ccc(-c3ccc(F)cc3)cc2)cs1)C(=O)O [compound A, 2-[(4-{2-[(4′-fluorobiphenyl-4-yl)oxy]ethyl}-1,3-thiazol-2-yl)thio]-2-methylpropionic acid] | – | – | – | 0.7 | metabolism by CYP2C19 (CYP2C19): also metabolized; metabolism by CYP3A4 (CYP3A4): also metabolized; metabolism by CYP2C9 (CYP2C9 [4]): mainly metabolized by CYP2C9; metabolism by CYP2C8 (CYP2C8): also metabolized; enzyme mainly involved in the metabolism (investigation using the inhibitor) (CYP2C9 [5]): CYP2C9 |
